Measurements as given in PMC7523345 (Investigational new drugs, 2018).

Test: Phase I dose escalation study: safety, tolerability, DLT and MTD
Format: in vivo

Cc1cccc2c1NC(=O)[C@@H](NC(=O)[C@H](CCC(F)(F)F)[C@H](CCC(F)(F)F)C(N)=O)N=C2c1cccc(F)c1 [BMS-986115]
1 (50) n (%): Abdominal pain (drug related AE, all grades) (Arm B BIW 2 mg (N = 2)) | Diarrhoea (drug related AE, Grade 3 and 4) (Arm B BIW 2 mg (N = 2)) | Diarrhoea (drug related AE, all grades) (Arm B BIW 2 mg (N = 2)) | Dyspepsia (drug related AE, all grades) (Arm B BIW 2 mg (N = 2)) | Fatigue (drug related AE, all grades) (Arm B BIW 2 mg (N = 2)) | Hypophosphataemia (drug related AE, Grade 3 and 4) (Arm B BIW 2 mg (N = 2)) | Hypophosphataemia (drug related AE, all grades) (Arm B BIW 2 mg (N = 2)) | Nausea (drug related AE, all grades) (Arm B BIW 2 mg (N = 2)) | Abdominal distension (drug related AE, all grades) (Arm B BIW 4 mg (N = 2)) | Dysgeusia (drug related AE, all grades) (Arm B BIW 4 mg (N = 2)) | Fatigue (drug related AE, all grades) (Arm B BIW 4 mg (N = 2)) | Flatulence (drug related AE, all grades) (Arm B BIW 4 mg (N = 2))
0 n (%): Blood creatinine increased (drug related AE, all grades) (Arm B BIW 2 mg (N = 2)) | Colitis (drug related AE, Grade 3 and 4) (Arm B BIW 2 mg (N = 2)) | Cough (drug related AE, Grade 3 and 4) (Arm B BIW 2 mg (N = 2)) | Cough (drug related AE, all grades) (Arm B BIW 2 mg (N = 2)) | Decreased Appetite (drug related AE, Grade 3 and 4) (Arm B BIW 2 mg (N = 2)) | Decreased Appetite (drug related AE, all grades) (Arm B BIW 2 mg (N = 2)) | Dehydration (drug related AE, Grade 3 and 4) (Arm B BIW 2 mg (N = 2)) | Dehydration (drug related AE, all grades) (Arm B BIW 2 mg (N = 2)) | Dermatitis acneiform (drug related AE, all grades) (Arm B BIW 2 mg (N = 2)) | Dry mouth (drug related AE, all grades) (Arm B BIW 2 mg (N = 2)) | Dry skin (drug related AE, all grades) (Arm B BIW 2 mg (N = 2)) | Dysgeusia (drug related AE, all grades) (Arm B BIW 2 mg (N = 2)) | Dysphonia (drug related AE, all grades) (Arm B BIW 2 mg (N = 2)) | Fatigue (drug related AE, Grade 3 and 4) (Arm B BIW 2 mg (N = 2)) | Flatulence (drug related AE, all grades) (Arm B BIW 2 mg (N = 2)) | Hypocalcaemia (drug related AE, Grade 3 and 4) (Arm B BIW 2 mg (N = 2)) | Hypocalcaemia (drug related AE, all grades) (Arm B BIW 2 mg (N = 2)) | Hypokalaemia (drug related AE, Grade 3 and 4) (Arm B BIW 2 mg (N = 2)) | Hypokalaemia (drug related AE, all grades) (Arm B BIW 2 mg (N = 2)) | Hyponatraemia (drug related AE, Grade 3 and 4) (Arm B BIW 2 mg (N = 2)) | Hyponatraemia (drug related AE, all grades) (Arm B BIW 2 mg (N = 2)) | Ileus (drug related AE, Grade 3 and 4) (Arm B BIW 2 mg (N = 2)) | Increased upper airway secretion (drug related AE, all grades) (Arm B BIW 2 mg (N = 2)) | Laryngeal pain (drug related AE, all grades) (Arm B BIW 2 mg (N = 2)) | Leucocytosis (drug related AE, Grade 3 and 4) (Arm B BIW 2 mg (N = 2)) | Mouth ulceration (drug related AE, all grades) (Arm B BIW 2 mg (N = 2)) | Nausea (drug related AE, Grade 3 and 4) (Arm B BIW 2 mg (N = 2)) | Pruritus (drug related AE, Grade 3 and 4) (Arm B BIW 2 mg (N = 2)) | Pruritus (drug related AE, all grades) (Arm B BIW 2 mg (N = 2)) | Pulmonary embolism (drug related AE, Grade 3 and 4) (Arm B BIW 2 mg (N = 2)) | Rash (drug related AE, all grades) (Arm B BIW 2 mg (N = 2)) | Rash maculopapular (drug related AE, all grades) (Arm B BIW 2 mg (N = 2)) | Sinusitis (drug related AE, all grades) (Arm B BIW 2 mg (N = 2)) | Urticaria (drug related AE, Grade 3 and 4) (Arm B BIW 2 mg (N = 2)) | Vision blurred (drug related AE, all grades) (Arm B BIW 2 mg (N = 2)) | Vomiting (drug related AE, Grade 3 and 4) (Arm B BIW 2 mg (N = 2)) | Vomiting (drug related AE, all grades) (Arm B BIW 2 mg (N = 2)) | Weight decreased (drug related AE, all grades) (Arm B BIW 2 mg (N = 2)) | Abdominal pain (drug related AE, Grade 3 and 4) (Arm B BIW 4 mg (N = 2)) | Abdominal pain (drug related AE, all grades) (Arm B BIW 4 mg (N = 2)) | Blood creatinine increased (drug related AE, all grades) (Arm B BIW 4 mg (N = 2)) | Colitis (drug related AE, Grade 3 and 4) (Arm B BIW 4 mg (N = 2)) | Cough (drug related AE, Grade 3 and 4) (Arm B BIW 4 mg (N = 2)) | Cough (drug related AE, all grades) (Arm B BIW 4 mg (N = 2)) | Decreased Appetite (drug related AE, Grade 3 and 4) (Arm B BIW 4 mg (N = 2)) | Decreased Appetite (drug related AE, all grades) (Arm B BIW 4 mg (N = 2)) | Dehydration (drug related AE, Grade 3 and 4) (Arm B BIW 4 mg (N = 2)) | Dehydration (drug related AE, all grades) (Arm B BIW 4 mg (N = 2)) | Dermatitis acneiform (drug related AE, all grades) (Arm B BIW 4 mg (N = 2)) | Diarrhoea (drug related AE, Grade 3 and 4) (Arm B BIW 4 mg (N = 2)) | Diarrhoea (drug related AE, all grades) (Arm B BIW 4 mg (N = 2)) | Dry mouth (drug related AE, all grades) (Arm B BIW 4 mg (N = 2)) | Dry skin (drug related AE, all grades) (Arm B BIW 4 mg (N = 2)) | Dyspepsia (drug related AE, all grades) (Arm B BIW 4 mg (N = 2)) | Dysphonia (drug related AE, all grades) (Arm B BIW 4 mg (N = 2)) | Fatigue (drug related AE, Grade 3 and 4) (Arm B BIW 4 mg (N = 2)) | Hypocalcaemia (drug related AE, Grade 3 and 4) (Arm B BIW 4 mg (N = 2)) | Hypocalcaemia (drug related AE, all grades) (Arm B BIW 4 mg (N = 2))
0: No. of patients with DLTs (Arm B BIW 2 mg, 2 DLT evaluable patients)
